Results published in patent US12226396B2, “Gluconic acid derivatives for use in the treatment and/or prevention of microbial infections” (GEDEA BIOTECH AB, priority 2017, dated 2025).

Assays:
Candida albicans = experiment: Biofilm formation assay (crystal violet); assay type: cell-based; settings: for normalized biofilm (% of control): 0.06 wt % acid, unbuffered, biofilm measured after 24 h; for normalized biofilm (OD560) at pH 6.1: pH 6.1, 24 h treatment; for normalized biofilm (OD560) at pH 2.6: pH 2.6, 24 h treatment
Protocol: (§1) Yeast strains (Table 1) were grown at 37° C. in complete medium YPD (0.5% yeast extract, 1% peptone, 2% glucose) or minimal medium consisting of YNB (yeast nitrogen base without amino acids and ammonium sulphate, FORMEDIUM™, CYN0505) supplemented with 0.5% ammonium sulphate, 0.2% glucose and 100 mM L-proline. If needed 2% agar was used to solidify media. The liquid minimal medium (YNB (yeast nitrogen base without amino acids and ammonium sulphate, FORMEDIUM™, CYN0505) supplemented with 0.5% ammonium sulphate, 0.2% glucose and 100 mM L-proline) was used for biofilm assay (biofilm medium).
(§2) In the experiments on the impact of pH on biofilm the pH values (from 2.6 to 6.6) were obtained using either different potassium phosphate buffers at the final concentration 0.25 M, or by the addition of citric acid, lactic acid, and gluconic acid to the biofilm medium.
(§3) Biofilm was measured in liquid culture as described [K. Scherz et al., G3 (Bethesda), 2014, 4, 1671-1680. I. Serrano-Fujarte et al. Biomed Res Int. 2015; 2015:783639] with some modifications. Prior the biofilm assay, yeast cultures were grown in liquid YPD medium for 24 hours until stationary phase (OD600 11-17)^2, cells were then pelleted by centrifugation (1699 g), washed with sterile water and cells were further inoculated into test biofilm medium (YNB (yeast nitrogen base without amino acids and ammonium sulphate) supplemented with 0.5% ammonium sulphate, 0.2% glucose and 100 mM L-proline pH7.0) at final concentration 0.2 OD600/ml and incubated in 96-well flat-bottom polystyrene microtiter plates (Sigma Aldrich, Corning® Costar® culture plates, CLS3596-50EA) for 72 hours at 37° C. thermostat. At defined time points crystal violet (HT901-8FOZ; Sigma Aldrich) was added to the media at the final concentration 0.05%, in addition total biomass was measured. After 24 hours of cells staining, plate wells were washed four times with 200 μl of water to remove planktonic cells, biofilms were then dried and dissolved in 200 μl of 96% ethanol. Total biomass and crystal violet biofilm staining measurements were performed at OD560 with FLUOstar OPTIMA plate reader, BMG LABTECH. Crystal violet biofilm measurements were normalized to the total biomass (OD560Biofilm/OD560 total biomass).
(§4) To compare the effects of different hydroxylated carboxylic acids at low concentrations, the biofilm formation was measured 24 h after addition of 0.06 wt % of glyceric acid, xylonic acid, citric acid, gluconic acid, and lactic acid, under unbuffered conditions.
In order to further evaluate the effect of gluconic acid in preventing biofilm formation, the biofilm formation at different pH were determined (as described in Example 1) for gluconic acid, lactic acid and citric acid.

Candida glabrata = experiment: Biofilm formation assay (crystal violet); assay type: cell-based; settings: for normalized biofilm (OD560) at pH 2.6: pH 2.6, 72 h treatment; for normalized biofilm (OD560) at pH 6.1: pH 6.1, 72 h treatment
Protocol: as §1, §2, §3
Candida glabrata is much more complicated to treat, compared to Candida albicans. However, a clear effect is obtained by longer treatment, i.e. 72 h with gluconic acid (Table 4).

Escherichia coli K12 = experiment: E. coli biofilm study in M9 medium (crystal violet); assay type: cell-based; settings: for effect on growth (biomass): M9 medium, 24-48 hours; for biofilm lowered: pH 6.6
Protocol: The bacterial strain Escherichia coli K12 was used for the biofilm study. This strain was maintained on LB medium at 37° C. The biofilm was studied in synthetic medium M9 (×1 M9 minimal salts (Sigma M6030), 2 mM MgSO4, 0.1 mM CaCl2, and 0.2% glucose), which contained either phosphate buffer, citric acid, lactic acid, gluconic acid or glucono-O-lactone to obtain media with different pH (2.6-6.6).
The overnight culture of E. coli K12 (OD600˜5.0) was washed with sterile water and inoculated to the final concentration 0.2 OD/ml of M9 medium with different pH of different compounds. The biofilm development was studied in 96-well flat-bottom polystyrene microtiter plates (Sigma Aldrich, Corning® Costar® culture plates, CLS3596-50EA). The biofilm was stained with crystal violet.

[1] = Resulting pH of biofilm medium after addition of hydroxylated carboxylic acid; assay type: physicochemical; settings: 0.06% acid in biofilm medium, unbuffered
Protocol: as §4

| SMILES | normalized biofilm (% of control) (Candida albicans) | less biofilm formation on replacing lactic acid by gluconic acid (Candida albicans; 0.06 wt %, 24 h, 6% vs 13% of control) [%] | normalized biofilm (OD560) at pH 6.1 (Candida albicans) [OD560] | normalized biofilm (OD560) at pH 2.6 (Candida glabrata) [OD560] | normalized biofilm (OD560) at pH 6.1 (Candida glabrata) [OD560] | effect on growth (biomass) (Escherichia coli K12) | biofilm lower compared to the phosphate medium (Escherichia coli K12; pH 2.6) [fold] | biofilm lower compared to the phosphate medium (Escherichia coli K12; pH 3.0) [fold] | biofilm lowered (Escherichia coli K12) [fold] | resulting pH [1] | normalized biofilm (OD560) at pH 2.6 (Candida albicans) [OD560] |
| --- | --- | --- | --- | --- | --- | --- | --- | --- | --- | --- | --- |
| O=C(O)[C@H](O)[C@@H](O)[C@H](O)[C@H](O)CO [gluconic acid] | 6 % of control | > 50 | 0.17 | 0.07 | 1.6 | inhibiting effect on the growth | 38 | 15 | ~2 | 6.5 | – |
| O=C(O)[C@H](O)[C@@H](O)[C@H](O)CO [xylonic acid] | 31 % of control | – | – | – | – | – | – | – | – | 7.0 | – |
| O=C(O)C(O)CO (centres unmarked) [glyceric acid] | 40 % of control | – | – | – | – | – | – | – | – | 7.0 | – |
| CC(O)C(=O)O (centres unmarked) [lactic acid] | 13 % of control | – | 3.1 | 0.9 | 2.8 | inhibiting effect on the growth | – | – | ~2 | 4.9 | 1.6 |
| O=C(O)CC(O)(CC(=O)O)C(=O)O [citric acid] | 14 % of control | – | 4.6 | 1.0 | 2.9 | inhibiting effect on the growth | – | – | – | 4.6 | 0.34 |
